{"source": "paper PMC10505147", "about": "“Ustilago maydis PR-1-like protein has evolved two distinct domains for dual virulence activities” (Nature Communications, 2023)", "key": {"[1]": {"molecular_target": "T1, CatB3 (Cathepsin B-like 3) (Zea mays, UniProt A0A804QEY3)", "T1 construct": "gene LOC100283781; untagged, expressed with signal peptide in Nicotiana benthamiana by agroinfiltration, purified from apoplastic fluid by size exclusion", "T1 sequence (A0A804QEY3 entry or part of it)": "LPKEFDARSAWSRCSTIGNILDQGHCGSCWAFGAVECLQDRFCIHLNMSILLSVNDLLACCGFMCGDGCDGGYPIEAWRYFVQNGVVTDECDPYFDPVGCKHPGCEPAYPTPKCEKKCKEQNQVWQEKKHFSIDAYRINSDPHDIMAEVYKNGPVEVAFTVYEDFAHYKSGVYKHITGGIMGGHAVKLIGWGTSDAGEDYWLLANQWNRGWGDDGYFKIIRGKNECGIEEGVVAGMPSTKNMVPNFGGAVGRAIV", "format": "biochemical", "conditions": "0.5 mM inhibitor, substrate UmPR-1La-HA culture supernatant, 50 mM sodium acetate, 10 mM DTT, pH 5.5, 28 °C"}, "[2]": {"molecular_target": "T2, UmPR-1La (PR-1La) (Mycosarcoma maydis, UniProt A0A0D1E5M0)", "T2 construct": "gene UMAG_01204; His-tagged full-length protein without signal peptide (PR-1La 24-279), expressed in E. coli Shuffle T7, Ni-NTA and size exclusion", "T2 sequence (A0A0D1E5M0 entry or part of it)": "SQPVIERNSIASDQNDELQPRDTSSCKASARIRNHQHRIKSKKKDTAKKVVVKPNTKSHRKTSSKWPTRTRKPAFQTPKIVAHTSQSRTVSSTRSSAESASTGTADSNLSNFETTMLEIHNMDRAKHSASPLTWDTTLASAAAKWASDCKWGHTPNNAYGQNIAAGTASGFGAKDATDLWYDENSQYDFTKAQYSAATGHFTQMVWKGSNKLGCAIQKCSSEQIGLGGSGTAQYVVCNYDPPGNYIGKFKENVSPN", "test": "intrinsic tryptophan fluorescence", "format": "binding", "conditions": "0.25 µM protein, 50 mM sodium acetate pH 5.5, room temperature, 15 min"}}}
{"molecule": "CC(C)C[C@H](NC(=O)[C@H]1O[C@@H]1C(=O)O)C(=O)NCCCCN=C(N)N", "note": "[E64]", "values": [{"measurement": "inhibition of UmPR-1La cleavage (immunoblot)", "setting": "[1]", "value": "The activity of CatB3 was blocked by E64 (Fig. 5b)"}]}
{"molecule": "COc1cc(/C=C/CO)ccc1O", "note": "[coniferyl alcohol]", "values": [{"measurement": "intrinsic tryptophan fluorescence", "setting": "[2]", "value": "both versions of the PR-1La proteins responded to CA by causing a shift"}]}
{"molecule": "COc1cc(/C=C/C(=O)O)ccc1O", "note": "[ferulic acid]", "values": [{"measurement": "intrinsic tryptophan fluorescence", "setting": "[2]; 5 µM or varied ligand, caveolin-binding motif site", "value": "the intrinsic fluorescence intensity of PR-1La decreased in an FA-concentration-dependent manner"}]}
